# Measured values reported in ChEMBL document CHEMBL1126991, “Isatin oximes - A novel series of bioavailable non-NMDA antagonists” (Bioorg Med Chem Lett, 1993).
# Experiments:
# [1] = biological target: Glutamate receptor ionotropic, AMPA (Rattus norvegicus, UniProt P19490+P19491+P19492+P19493); assay: Tested for the inhibition of binding of [3H]AMPA radioligand to Ionotropic glutamate receptor AMPA to cortical membranes from rat brain
# Rattus norvegicus [2] = species on record: Rattus norvegicus; assay: Tested for the ability to inhibit AMPA (5 uM) induced depolarizations in rat cortical wedge preparation; format: functional
# Rattus norvegicus [3] = species on record: Rattus norvegicus; assay: Tested for the ability to inhibit NMDA (20 uM) induced depolarizations in rat cortical wedge preparation; format: functional
# Mus musculus [4] = species on record: Mus musculus; assay: Tested for the effective dosage required for the protection against AMPA induced seizures; format: functional
# Mus musculus [5] = species on record: Mus musculus; assay: Tested for the [Ca2+] i induced elevation using cultured mouse cortical neurons, exposed to 5 uM AMPA for 4 minutes; format: functional
# Mus musculus [6] = species on record: Mus musculus; assay: Tested for the [Ca2+] i induced elevation using cultured mouse cortical neurons, exposed to 50 uM NMDA for 4 minutes; format: functional
# [7] = biological target: Glutamate receptor ionotropic, kainate
# Description: Tested for the inhibition of binding of [3H]kainate radioligand to Ionotropic glutamate receptor kainate of cortical membranes from rat brain
IC50 [1] [µM],IC50 (Rattus norvegicus [2]) [µM],IC50 (Rattus norvegicus [3]) [µM],IC50 (Mus musculus [5]) [µM],IC50 (Mus musculus [6]) [µM],IC50 [7] [µM],SMILES,ED50 (Mus musculus [4]) [mg/kg]
2.8,2.5,> 30,3.5,> 30,24.5,NS(=O)(=O)c1cc2c(N=O)c(O)[nH]c2c2c1CCCC2,> 30
1.8,3.5,> 30,5.4,> 30,27,CN(C)S(=O)(=O)c1cc2c(N=O)c(O)[nH]c2c2c1CCCC2,3
–,–,–,–,–,–,N#Cc1cc2c(cc1[N+](=O)[O-])=NC(=O)C(=O)N=2,10
–,0.3,> 30,0.3,> 30,–,NS(=O)(=O)c1cccc2c1c([N+](=O)[O-])cc1nc(O)c(O)nc12 [NBQX],10
> 30,–,–,–,–,> 30,O=C1Nc2c(ccc3c2CCCC3)/C1=N/O,> 30
2.8,5.2,> 30,11,> 30,30,CNS(=O)(=O)c1cc2c(N=O)c(O)[nH]c2c2c1CCCC2,30
8.1,> 30,> 30,> 30,> 30,> 30,O=Nc1c(O)[nH]c2c3c(c([N+](=O)[O-])cc12)CCCC3,> 30
